Data set [1] has as its system Retinoic Acid Response Element (RARE) transcription factor pathway. Description: Cignal RARE Reporter Assay (firefly luciferase) in HEK293 cells. Conditions: 24 h, vs water. Type of data set: cell-based. The source says:
Objective: Retinoic Acid Receptor (RAR) controls gene transcription by binding to Retinoid Acid Response Elements (RAREs) in DNA. This process is modulated by all trans retinoic acid (ATRA)—a compound with well-established anti-aging skin benefits. […] Cignal RARE Reporter Assay® is designed to screen for such compounds using cell cultures. The objective of this project was to test 6 compounds (retinoic acid (ATRA), retinol, vitamin A palmitate, retinal, 10% w/w Near-1 in dimethylisosorbide, and 10% w/w retinoid ester in dimethylisosorbide) for the ability to activate RARE in this Cignal RARE Reporter Assay model.
Materials & Methods: The experiments were performed using HEK293 cells (Sigma, St. Louis, Mo.; cat. #85120602) seeded at 50,000 per well in a 96 well black-wall tissue culture plate. Cells were transfected by mixing Cignal Reporter Assay firefly/renilla luciferase constructs (cat. #CCS-016L; Qiagen) with Attractene Transfection Reagent (Qiagen) in Opti-MEM supplemented with 1% MEM Non-essential amino acid solution without L-glutamine. After medium change test materials were added and their effect on RARE induction was quantified 24 h later with the Dual-Luciferase Reporter Assay System (cat. #E1960; Promega).

Data set [2] concerns Retinoid X receptor (RXR) transcription factor pathway. Description: Cignal RXR Reporter Assay (firefly luciferase) in HEK293 cells. Conditions: for RXR activation (% control): 24 h, vs water. Type of data set: cell-based. The source says:
Objective: Retinoid X receptors (RXRs) are one class of nuclear receptors through which retinoids mediate their biological effects. These receptors function as transcription factors by binding as heterodimers to specific sequences in the promoters of target genes. The protein encoded by this gene is a member of the steroid and thyroid hormone receptor superfamily of transcriptional regulators. One of its ligands is all trans retinoic acid (ATRA)—a compound with well-established anti-aging skin benefits. […] Cignal RXR Reporter Assay® is designed to screen for such compounds (retinoic acid (ATRA), retinal, 10% w/w Near-1 in dimethylisosorbide, and 10% w/w retinoid ester in dimethylisosorbide) using cell cultures. The objective of this project was to test four compounds for the ability to activate RXR in this Cignal RXR Reporter Assay model.
The experiments were performed using HEK293 cells (Sigma, St. Louis, Mo.; cat. #85120602) seeded at 50,000 per well in a 96 well black-wall tissue culture plate. Cells were transfected by mixing Cignal RXR Reporter Assay firefly/renilla luciferase constructs (cat. #CCS9044L; Qiagen) with Attractene Transfection Reagent (Qiagen) in Opti-MEM supplemented with 1% MEM Non-essential amino acid solution without Lglutamine. After medium change test materials were added and their effect on RXR induction was quantified 24 h later with the Dual-Luciferase Reporter Assay System (cat. #E1960; Promega).
RXR is a mixture of an inducible retinoid X receptor—responsive firefly luciferase construct and a constitutively expressing Renilla construct, which acts as an internal control for normalizing transfection efficiencies and monitoring cell viability. Signal quantification was obtained with ThermoFisher Scientific Luminoskan Ascent Microplate Luminometer.
A general note: Reporter assays use an easily measured gene product as a stand-in for the process of interest.

Data set [3] deals with melanin production in MelanoDerm™ skin substitute. Put plainly: Melanin-modulatory effect in MelanoDerm skin substitutes (color measurement, melanin extraction). Type of data set: cell-based. How it is done:
Objective: The objective of this assay was to determine the ability of the test materials (dimethylisosorbide [DMI], retinoic acid [ATRA], 10% w/w NEAR-1 in dimethylisosorbide [NEAR-1], Niacinamide PC [NAD], and Kojic Acid [KA]) and combinations thereof to inhibit melanin production in MelanoDerm™ skin substitute model. The effect of these experimental conditions on the secretion of the proinflammatory cytokine IL-8 was also assessed, as a surrogate for skin irritation potential.
Tissues were equilibrated at 37° C. for 60 min. and undiluted samples (25 μl) of test materials were applied on top of tissues in duplicates. DMI and kojic acid were applied at 2.5% and 2% (w:v) respectively (dissolved in double distilled water). Tissue culture was pursued in the pigmentation-inducing medium EPI-100-NMM-113 for 14 days, with reapplication of test materials and changes of tissue culture media every 2-3 days.
At the end of the experiment, tissue pigmentation was quantified non-invasively with NS800 portable spectrophotometer (3NH Technology Co., Ltd., China). This instrument is a reflectance spectrophotometer that measures reflected light in the visible spectrum (range: 400-700 nm) recording colors in a three-dimensional space known as CIEL*a*b* color space. In this project, the L* value representing the lightness of the color was used for color assessment. For the purpose of this experiment, the range of the L* parameter spanned from 17.8 (black background) to 87.8 (white background).
For melanin quantification, the MelanoDerms were frozen, solubilized in Solvable™ (Perkin Elmer) and melanin was extracted at 95° C. overnight. The colorimetric signals proportional to the concentration of extracted melanin, as well as those proportional to the IL-8 in the tissue-conditioned medium in the ELISA test were quantified with Molecular Devices microplate spectrophotometer MAX190 at 490 nm and 405 nm.

For data set [4], the system named is MelanoDerm tissues. Description: Cytotoxicity by microscopic observation of MelanoDerm tissues. Type of data set: cell-based. Conditions: 2.2 mM; 2 weeks. How it is done:
Tissues were equilibrated at 37° C. for 60 min. and undiluted samples (25 μl) of test materials were applied on top of tissues in duplicates. DMI and kojic acid were applied at 2.5% and 2% (w:v) respectively (dissolved in double distilled water). Tissue culture was pursued in the pigmentation-inducing medium […]-113 for 14 days, with reapplication of test materials and changes of tissue culture media every 2-3 days. Results and Discussion: From the macroscopic documentation of all the MelanoDerm tissues at the end of the experiment, differences of color are clearly visible between the solvent controls and some test materials. Table 34 informs whether cytotoxicity may have played a role in these differences. Table 34 also reports the non-invasive MelanoDerm color measurement performed with portable spectrophotometer. [table]

For data set [5], the system named is IL-8. Put plainly: IL-8 in MelanoDerm tissue culture-conditioned medium by ELISA (skin irritation surrogate). In kind it is cell-based, Human. Conditions: day 14. How it is done:
Objective: The objective of this assay was to determine the ability of the test materials (dimethylisosorbide [DMI], retinoic acid [ATRA], 10% w/w NEAR-1 in dimethylisosorbide [NEAR-1], Niacinamide PC [NAD], and Kojic Acid [KA]) and combinations thereof to inhibit melanin production in MelanoDerm™ skin substitute model. The effect of these experimental conditions on the secretion of the proinflammatory cytokine IL-8 was also assessed, as a surrogate for skin irritation potential. Tissue culture-conditioned media were assayed for the presence of IL-8 by indirect ELISA (using Invitrogen IL-8 Human CytoSet, cat. #CHC 1303). For melanin quantification, the MelanoDerms were frozen, solubilized in Solvable™ (Perkin Elmer) and melanin was extracted at 95° C. overnight. The colorimetric signals proportional to the concentration of extracted melanin, as well as those proportional to the IL-8 in the tissue-conditioned medium in the ELISA test were quantified with Molecular Devices microplate spectrophotometer MAX190 at 490 nm and 405 nm.
On the technique in general: ELISA stands for enzyme-linked immunosorbent assay.

Experimental findings from patent US11318077B2, “Retinaldehyde containing compositions and methods of use” (RODAN & FIELDS, LLC, priority 2017, dated 2022) are described below.

Consider `CC1=C(/C=C/C(C)=C/C=C/C(C)=C/C(=O)OCCNC(=O)c2cccnc2)C(C)(C)CCC1` [NEAR-1, 2-(nicotinamido)-ethyl retinoate], for which the “RARE-mediated firefly luciferase expression, % control” value is reported as 461 % control in data set [1] (1 μM), 652 % control in data set [1] (5 μM) and 586 % control in data set [1] (10 μM). Besides, the “RARE-mediated firefly luciferase expression, Fold increase” value in data set [1] (1 μM) was found to be 4.6; in data set [1] (5 μM), 6.5; in data set [1] (10 μM), 5.8. Also, the “RXR activation (% control)” value in data set [2] (1 μM) was found to be 103 % control; in data set [2] (5 μM), 112 % control; in data set [2] (10 μM), 127 % control. In data set [2] (10 uM, statistically-significant), the “modulatory effect on RXR-mediated gene expression” value is listed as 1.3 fold. Besides, the “Color measurement (whitening units)” value in data set [3] (833 μM, 2 weeks) was 30.0 whitening units; in data set [3] (2.2 mM, 2 weeks), 27.4 whitening units. The “Raw *L values” in data set [3] (833 μM, 2 weeks) came to 72.8; in data set [3] (2.2 mM, 2 weeks), 70.2. Besides, the “Melanin Content” value in data set [3] (2.2 mM, 2 weeks) was 22 µg/mL. In addition, the “Melanin Content (% control)” value in data set [3] (2.2 mM, 2 weeks) was 26 % control. In addition, the “Whitening effect (ranking in the retinoid category)” value in data set [3] (NEAR-1 at 833 μM, Retinaldehyde 833 μM+NAD 835 μM) is recorded as “best whitening effect at non-cytotoxic concentration”. For the same molecule, the Cytotoxicity entry in data set [4] is “Yes”. In addition, the “IL-8 (col. Units)” value stood at 208 col. Units in data set [5] (833 μM) and 209 col. Units in data set [5] (2.2 mM).
